Source: patent US8637683B2, “Macrocyclic lactone derivatives for the treatment of cancer” (Piramal Enterprises Limited, priority 2009, dated 2014)
Values after ≈ are worked out from the molar mass of the structure shown. Values joined by “and” are separate entries in the source; they are usually repeats but may differ in a detail not shown here. Equal values may be shown once. Read-outs that look alike come from different tables or passages of the source.

What was measured:
RKO = test: Monolayer assay (modified propidium iodide), RKO; assay type: cell-based, human; conditions: Colon, 4 days of treatment
Text: (§1) Oncotest GmbH, Germany's proprietary tumor cell line panel comprises 40 cell lines. These cell lines were derived from 15 different tumor histotypes, each represented by 1 to 6 different cell lines. Cell lines were established from cancer of the bladder (3), colon (4), head and neck (1), lung (6), breast (3), pancreas (3), prostate (4), ovary (2), kidney (3), liver (1), stomach (1) and the uteri body (1), as well as from melanoma (3), sarcoma (2) and pleuramesothelioma (3). Out of these 40 cell lines, 24 cell lines were established at Oncotest, from patient-derived tumor xenografts. […]
(§2) Stock solutions of the test compounds (330 μg/mL in DMSO) were prepared and stored in small aliquots (200 μL) at −20° C. […] Each concentration was evaluated in triplicate. […]
(§3) Cells were plated in 96-well flat-bottom microtiter plates at a cell density of 4,000 to 10,000 cells/well. […] To measure the viable cell number, the remaining adherent cells were killed and permeabilized by repeated freezing and thawing and PI fluorescence was measured using the Cytofluor 4000 microplate reader (excitation λ=530 nm, emission λ=620 nm), which was a measure for the number of cells which survived treatment. […] IC-values were calculated based on the principle of linear two-point curve fit. […]

MEXF 1341L = test: Monolayer assay (modified propidium iodide), MEXF 1341L; assay type: cell-based, human; conditions: Melanoma, 4 days of treatment
Text: as §1, §2, §3

GXF 251 L = test: Monolayer assay (modified propidium iodide), GXF 251 L; assay type: cell-based, human; conditions: Gastric, 4 days of treatment
Text: as §1, §2, §3

LXF 526L = test: Monolayer assay (modified propidium iodide), LXF 526L; assay type: cell-based, human; conditions: Lung, 4 days of treatment
Text: (§4) Oncotest GmbH, Germany's proprietary tumor cell line panel comprises 40 cell lines. These cell lines were derived from 15 different tumor histotypes, each represented by 1 to 6 different cell lines. Cell lines were established from cancer of the bladder (3), colon (4), head and neck (1), lung (6), breast (3), pancreas (3), prostate (4), ovary (2), kidney (3), liver (1), stomach (1) and the uteri body (1), as well as from melanoma (3), sarcoma (2) and pleuramesothelioma (3). Out of these 40 cell lines, 24 cell lines were established at Oncotest, from patient-derived tumor xenografts. The other 16 cell lines were either provided by the NCI (Bethesda; MD, USA) or were purchased from ATCC (Rockville, Md., USA) or DSMZ (Braunschweig, Germany).
Cell lines were routinely passaged once or twice weekly and maintained in culture for upto 20 passages. All cells were grown at 37° C. in a humidified atmosphere with 5% CO2 in RPMI 1640 medium supplemented with 10% (v/v) fetal calf serum (FCS) and 0.1 mg/mL gentamicin (medium and all other components from PAA, Cölbe, Germany). […]
as §2
as §3, with “treatment. Pharmacological effects on cell proliferation and survival were expressed as Test/Control×100 (% T/C) values, with T and C representing the fluorescence read-outs for wells with and without test compound, respectively, i.e. T/C represents the ratio of viable cell numbers following incubation of cell line with/without test compound.” for “treatment.”

MCF 7 = test: Monolayer assay (modified propidium iodide), MCF 7; assay type: cell-based, human; conditions: MCF 7, Mammary, 4 days of treatment
Text: as §1, §2, §3

[1] = tested on: panel of 40 human tumor cell lines; test: Monolayer assay, panel of 40 human tumor cell lines; assay type: cell-based
Text: as §4
Cell lines were routinely passaged once or twice weekly and maintained in culture for upto 20 passages. All cells were grown at 37° C. in a humidified atmosphere with 5% CO2 in RPMI 1640 medium supplemented with 10% (v/v) fetal calf serum (FCS) and 0.1 mg/mL gentamicin (medium and all other components from PAA, Cölbe, Germany). Authenticity of all cell lines was proven at the DSMZ by STR (short tandem repeat) analysis, a PCR based DNA-fingerprinting methodology.
Stock solutions of the test compounds (330 μg/mL in DMSO) were prepared and stored in small aliquots (200 μL) at −20° C. An aliquot of the stock solution was thawed on the day of use and stored at room temperature prior to and during dosing. The subsequent dilutions were done with complete RPMI 1640 cell culture medium as follows: the stock solution was diluted 1:22 followed by serial dilutions finally resulting in a (compared to the test concentration) 15-fold higher concentration. For the final dilution step (1:15), 10 μL/well of the respective compound solution was directly added to 140 μL/well culture medium. Test compounds were tested at […]. Each concentration was evaluated in triplicate.
A modified propidium iodide assay was used to assess the effect of the test compounds on the growth of the human tumor cell lines and was designed as in reference, Anti-cancer Drugs, 6, 522-532, (1995), the disclosure of which is incorporated by reference for the teaching of the assay.
Cells were plated in 96-well flat-bottom microtiter plates at a cell density of 4,000 to 10,000 cells/well. After a 24 h recovery period to allow the cells to resume exponential growth, the test compounds were applied at five concentrations in log increments in triplicates in two independent runs. After 4 days of treatment, the medium with/without test compounds including all floating (i.e., dead) cells was aspirated and replaced by 200 μL of an aqueous propidium iodide (PI) solution (7 μg/mL). To measure the viable cell number, the remaining adherent cells were killed and permeabilized by repeated freezing and thawing and PI fluorescence was measured using the Cytofluor 4000 microplate reader (excitation λ=530 nm, emission λ=620 nm), which was a measure for the number of cells which survived treatment. Pharmacological effects on cell proliferation and survival were expressed as Test/Control×100 (% T/C) values, with T and C representing the fluorescence read-outs for wells with and without test compound, respectively, i.e. T/C represents the ratio of viable cell numbers following incubation of cell line with/without test compound. Based on the T/C values IC50 and IC70 values, being the drug concentration necessary to inhibit cell growth by 50% (T/C=50%) and 70% (T/C=30%), respectively, were determined by plotting compound concentration versus cell viability (T/C). IC-values were calculated based on the principle of linear two-point curve fit. […]

Structure (SMILES): C/C=C/C(O)C(C)/C=C/C(=N\O)C(C)C(O)C(C)C1OC(=O)/C(OC)=C/C(C)=C/C(C)C(O)C(CC)C(O)C(C)C/C(C)=C/C=C/C1OC (centres unmarked) [Example 7, (3Z,5E,13E,15E)-18-((5Z,6E,10E)-3,9-Dihydroxy-5-(hydroxymino)-4,8-dimethyldodeca-6,10-dien-2-yl)-9-ethyl-8,10-dihydroxy-3,17-dimethoxy-5,7,11,13-tetramethyl oxacyclooctadeca-3,5,13,15-tetraen-2-one]
- IC70 (RKO): 0.6 ng/mL (≈ 0.87 nM)
- IC50 (RKO; Homo sapiens, 96 h): 0.2 ng/mL (≈ 0.29 nM)
- IC50 (MEXF 1341L; Homo sapiens, 96 h): 0.2 ng/mL (≈ 0.29 nM)
- IC70 (MEXF 1341L): 2.0 ng/mL (≈ 2.9 nM)
- IC70 (GXF 251 L): 6.0 ng/mL (≈ 8.7 nM)
- IC50 (GXF 251 L; Homo sapiens, 96 h): 1 ng/mL (≈ 1.45 nM)
- IC50 (LXF 526L; Homo sapiens, 96 h): < 0.1 ng/mL
- IC70 (LXF 526L): 0.1 ng/mL (≈ 0.145 nM)
- IC50 (MCF 7; Homo sapiens, MCF7, 96 h): 1 ng/mL (≈ 1.45 nM)
- IC70 (MCF 7): 4.0 ng/mL (≈ 5.8 nM)
- activity in all cell lines as tested ([1]; 40 cell lines): concentration-dependent activity
- tumor selectivity ([1]; 40 cell lines): remarkable level of tumor selectivity
- Tumor selectivity: number of cell lines among the histotype with individual IC70 <mean IC70 ([1]; Bladder): 2 out of 3 and 2/3
- Tumor selectivity: number of cell lines among the histotype with individual IC70 <mean IC70 ([1]; Breast (mammary)): 2/3 and 3/3
- Tumor selectivity: number of cell lines among the histotype with individual IC70 <mean IC70 ([1]; Colon): 4/4
- IC50 ([1]; Homo sapiens, all 40 cell lines, read-out: IC50): < 1000 ng/mL
- Tumor selectivity: number of cell lines among the histotype with individual IC70 <mean IC70 ([1]; Lung): 5/6
- Tumor selectivity: number of cell lines among the histotype with individual IC70 <mean IC70 ([1]; Melanoma): 2/3
- Tumor selectivity: number of cell lines among the histotype with individual IC70 <mean IC70 ([1]; Pleurameso): 1/3
- Tumor selectivity: number of cell lines among the histotype with individual IC70 <mean IC70 ([1]; Prostate): 2/4
- IC70 ([1]; all 4 colon cancer cell lines): ≤ 5 ng/mL
- Mean IC70 ([1]; mean over panel of 40 human tumor cell lines): 9.1 ng/mL
- IC50 ([1]; mean over panel of 40 human tumor cell lines, read-out: Mean IC50): 1.1 ng/mL (≈ 1.59 nM)
